Measurements published in ChEMBL document CHEMBL1201862, “PubChem BioAssay data set” (2004).
Calls of active or inactive are those of the source.

Legend:
[1] = molecular target: T1, Protein phosphatase methylesterase 1 (Homo sapiens, UniProt Q9Y570); experiment: PME-1 inhibitor potency by in-gel ABPP, dose response, selectivity assay for PME-1 inhibitor project, cell lysate, mouse brain cytosol, FP-rhodamine, panel member PME-1 Assay Panel member description: Inhibition of endogenously expressed PME-1 (AID 2366)
[2] = molecular target: T1, Protein phosphatase methylesterase 1; experiment: Late stage results from the probe development effort to identify inhibitors of the protein methylesterase PME-1: Gel-based Activity-Based Protein Profiling (ABPP) IC50: Purified enzyme.; type: functional
[3] = molecular target: T2, Corticotropin-releasing factor receptor 2/Corticotropin-releasing factor-binding protein (Homo sapiens, UniProt P24387+Q13324); experiment: activators of CRF receptor 2 with binding protein – uHTS hits, confirmation (AID 602473); type: functional; conditions: read-out: EC50_Mean
T2 sequence (Q13324 whole entry): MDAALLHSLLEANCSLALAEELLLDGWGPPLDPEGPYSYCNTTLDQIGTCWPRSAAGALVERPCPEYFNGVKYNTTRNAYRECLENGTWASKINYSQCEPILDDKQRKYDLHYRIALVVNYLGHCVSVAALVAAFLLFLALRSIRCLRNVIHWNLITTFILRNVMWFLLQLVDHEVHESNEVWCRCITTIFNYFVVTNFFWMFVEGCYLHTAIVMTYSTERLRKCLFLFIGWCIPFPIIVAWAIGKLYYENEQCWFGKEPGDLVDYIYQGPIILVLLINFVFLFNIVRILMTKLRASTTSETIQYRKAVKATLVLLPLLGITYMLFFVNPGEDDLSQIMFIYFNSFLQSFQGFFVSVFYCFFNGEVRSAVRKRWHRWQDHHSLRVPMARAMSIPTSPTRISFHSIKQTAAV
T2 sequence (P24387 whole entry): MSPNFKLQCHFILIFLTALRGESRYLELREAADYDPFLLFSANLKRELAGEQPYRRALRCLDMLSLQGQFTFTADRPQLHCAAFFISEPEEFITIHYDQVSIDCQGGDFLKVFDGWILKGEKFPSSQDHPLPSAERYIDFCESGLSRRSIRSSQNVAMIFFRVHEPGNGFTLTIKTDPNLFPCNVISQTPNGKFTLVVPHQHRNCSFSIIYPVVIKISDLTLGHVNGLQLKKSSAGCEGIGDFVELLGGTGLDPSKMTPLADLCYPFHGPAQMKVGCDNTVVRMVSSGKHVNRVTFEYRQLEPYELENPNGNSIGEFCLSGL

SUMO-activating enzyme [4] = molecular target: T3, SUMO-activating enzyme (Homo sapiens, UniProt Q9UBT2); experiment: inhibitors of in vitro SUMOylation cascade, primary screen, biochemical, HTRF, uHTS (AID 2006); type: protein-complex assay
[5] = molecular target: T4, Runt-related transcription factor 1/Core-binding factor subunit beta (Homo sapiens, UniProt Q01196+Q13951); experiment: inhibitors of RUNX1 Runt–CBFb-SMMHC binding, biochemical, TR-FRET (AID 1438); type: protein assay
SUMO-activating enzyme [6] = molecular target: T3, SUMO-activating enzyme; experiment: SUMOylation inhibitor hit validation, confirmation, SUMOylation inhibitor project, biochemical, AlphaScreen (AID 2018); type: functional
[7] = molecular target: T4, Runt-related transcription factor 1/Core-binding factor subunit beta; experiment: inhibitors of RUNX1 Runt–CBFb-SMMHC binding, primary screen, biochemical, FRET, Cerulean-Runt, Venus-CBFb-SMMHC, uHTS (AID 1434); type: protein assay;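 note: partner is the CBFb-SMMHC leukemia fusion protein rather than wild-type CBFb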
Troponin, cardiac muscle = Troponin, cardiac muscle (Homo sapiens, UniProt P19429+P45379+P63316); experiment: Fluorescence-based biochemical high throughput dose response assay for activators of the calcium sensitivity of cardiac Regulated Thin Filaments (RTF). [Related pubchem assays (depositor defined):AID493008, AID493018, AID504382, AID504383]; type: protein-complex assay
[8] = molecular target: T5, Alkaline phosphatase, tissue-nonspecific isozyme (Homo sapiens, UniProt P05186); experiment: human TNAP enzyme inhibitors, SAR follow-up, biochemical, luminescent, dose response (AID 1056)
T5 sequence (P05186 whole entry): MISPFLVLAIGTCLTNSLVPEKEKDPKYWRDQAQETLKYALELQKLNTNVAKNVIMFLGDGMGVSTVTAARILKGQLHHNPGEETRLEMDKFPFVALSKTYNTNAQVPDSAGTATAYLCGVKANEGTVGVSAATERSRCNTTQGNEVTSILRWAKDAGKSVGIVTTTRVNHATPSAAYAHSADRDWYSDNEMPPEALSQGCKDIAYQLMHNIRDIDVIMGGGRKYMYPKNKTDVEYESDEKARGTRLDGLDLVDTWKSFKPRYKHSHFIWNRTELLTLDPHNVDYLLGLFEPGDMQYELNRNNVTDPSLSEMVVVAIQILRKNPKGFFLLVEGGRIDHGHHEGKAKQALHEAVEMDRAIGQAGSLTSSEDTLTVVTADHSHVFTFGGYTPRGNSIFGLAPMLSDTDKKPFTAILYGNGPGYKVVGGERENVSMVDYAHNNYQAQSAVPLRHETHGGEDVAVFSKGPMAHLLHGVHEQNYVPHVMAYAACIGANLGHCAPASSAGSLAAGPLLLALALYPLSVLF

Phosphomannomutase 2 = molecular target: T6, Phosphomannomutase 2 (Homo sapiens, UniProt O15305); experiment: Counter screen SAR assay for PMM2 inhibitors via a fluorescence intensity assay. [Related pubchem assays (depositor defined):AID1545, AID1574]
T6 sequence (O15305 whole entry): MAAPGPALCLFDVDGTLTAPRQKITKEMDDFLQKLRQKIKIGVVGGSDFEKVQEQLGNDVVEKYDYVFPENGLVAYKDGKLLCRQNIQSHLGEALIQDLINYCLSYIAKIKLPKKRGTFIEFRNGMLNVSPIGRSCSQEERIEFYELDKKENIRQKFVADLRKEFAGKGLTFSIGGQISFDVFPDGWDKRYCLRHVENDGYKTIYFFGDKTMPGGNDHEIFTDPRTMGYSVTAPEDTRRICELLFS

[9] = molecular target: T7, Mannose-6-phosphate isomerase (Homo sapiens, UniProt P34949); experiment: Confirmation of compounds inhibiting phosphomannose isomerase (PMI) via a fluorescence intensity assay using a high concentration of mannose 6-phosphate. [Related pubchem assays (depositor defined):AID1209, AID1220, AID1545, AID1553, AID1620]
T7 sequence (P34949 whole entry): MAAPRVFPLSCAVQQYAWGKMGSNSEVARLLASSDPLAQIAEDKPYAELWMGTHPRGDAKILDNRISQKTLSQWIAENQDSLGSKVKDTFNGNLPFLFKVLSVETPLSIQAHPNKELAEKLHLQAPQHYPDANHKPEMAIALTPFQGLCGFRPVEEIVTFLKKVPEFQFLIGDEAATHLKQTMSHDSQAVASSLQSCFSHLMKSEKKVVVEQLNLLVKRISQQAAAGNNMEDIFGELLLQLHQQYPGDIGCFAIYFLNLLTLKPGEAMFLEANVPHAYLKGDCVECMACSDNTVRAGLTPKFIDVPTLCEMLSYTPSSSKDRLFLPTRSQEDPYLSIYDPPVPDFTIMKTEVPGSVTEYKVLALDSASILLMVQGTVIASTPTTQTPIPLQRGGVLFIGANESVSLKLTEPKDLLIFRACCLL

[10] = molecular target: T7, Mannose-6-phosphate isomerase; experiment: PMI enzyme inhibitors, confirmation, biochemical, fluorescence intensity (AID 1535)
[11] = molecular target: Phosphoethanolamine/phosphocholine phosphatase (Homo sapiens, UniProt Q8TCT1); experiment: SAR assay for compounds that inhibit PHOSPHO1. [Related pubchem assays (depositor defined):AID1545, AID1565, AID1574]

CS(=O)(=O)/C(C#N)=C/c1ccc([N+](=O)[O-])cc1
IC50 [1]: > 20 µM (inactive)
IC50 [2]: > 20 µM (not active)

Cc1ccc(S(=O)(=O)c2cc3c(=O)n4ccccc4nc3n(Cc3ccco3)c2=N)cc1
EC50 [3]: > 53 µM (inactive)
IC50 (SUMO-activating enzyme [4]): 3.93 µM (active)
IC50 [5]: 58.6 µM (inactive)
IC50 (SUMO-activating enzyme [6]): 13.4 µM (active)
IC50 [7]: 5.08 µM (active)

CCOc1cc(N2CCOCC2)c(OCC)cc1NC(=O)CCS(=O)(=O)c1ccc(Cl)cc1
EC50 (Troponin, cardiac muscle): > 71.5 µM (inactive)

Cc1ccc(C)c(-n2sc3ccccc3c2=O)c1
IC50 [8]: > 100 µM (inactive)
IC50 (Phosphomannomutase 2): 17.9 µM (active)
IC50 [9]: 5.51 µM (active)
IC50 [10]: 1.67 µM (active)
IC50 [11]: 5.04 µM (inactive)
